What is called EC50 is the concentration needed to bring the measured effect to its halfway point.

The source of these data is patent publication US20240101531A1, “PYRIDINAMINE DERIVATIVES AND THEIR USE AS POTASSIUM CHANNEL MODULATORS” (Xenon Pharmaceuticals Inc., priority 2022, published 2024).

Where a name gives a salt, the structure may show the parent alone.

The assay has as its target human KV7.2/KV7.3 (Homo sapiens (Human), UniProt O43525+O43526). Kind of assay: Potassium flux assay (IPG-2 AM dye). Format: cell-based. Particulars: TREX HEK 293 or HEK 293 cells expressing human KV7.2/KV7.3; arithmetic mean values. The method, boiled down: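 HEK 293 or TREX HEK 293 cells stably expressing human KV7.2/KV7.3 (tetracycline-induced where needed), loaded with IPG-2 AM, then compound for 20 min at room temperature. Flux triggered by K challenge buffer (10 mM KCl, pH 7.4), read at 530/558 nm; EC50 from 16-point 2-fold series from 30 μM, normalised to DMSO and reference modulator.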
Consider `CS(=O)(=Nc1ccc2c(Nc3ccc(Cl)nc3)nccc2c1)C1CC1` (stereo in doubt) [Example 273, (R)-((1-((6-chloropyridin-3-yl)amino)isoquinolin-6-yl)imino)(cyclopropyl)(methyl)-λ^6-sulfanone], for which the EC50 lay within 1 to 10 µM. With `FC1(F)CC(Oc2ccc3c(Nc4ccc(Cl)nc4)nccc3c2)C1` [Example 412, N-(6-chloropyridin-3-yl)-6-(3,3-difluorocyclobutoxy)isoquinolin-1-amine] the figure was 1 to 10 µM; with `CO[C@@H]1CCC[C@H](Oc2ccc3c(Nc4cnc(Cl)nc4)nccc3c2)C1` (racemic) [Example 360, cis-N-(2-chloropyrimidin-5-yl)-6-(((1S,3R)-3-methoxycyclohexyl)oxy)isoquinolin-1-amine], less than 1 µM. Take `O[C@H]1CC[C@@H](Oc2ccc3c(Nc4ccc(Cl)nc4)nccc3c2)CC1` [Example 100, Cis-4-((1-((6-chloropyridin-3-yl)amino)isoquinolin-6-yl)oxy)cyclohexan-1-ol]: the EC50 was less than 1 µM.

In the case of `Clc1ccc(Nc2nccc3cc(OCc4cccnc4)ccc23)cn1` [Example 195, N-(6-chloropyridin-3-yl)-6-(pyridin-3-ylmethoxy)isoquinolin-1-amine], the EC50 was less than 1 µM. The result for `CC1(COc2ccc3c(Nc4ccc(Cl)nc4)nccc3c2)CCCO1` (stereo not shown) [Example 406, N-(6-chloropyridin-3-yl)-6-((2-methyltetrahydrofuran-2-yl)methoxy)isoquinolin-1-amine] reads less than 1 µM; that for `F[C@H]1C[C@H](Oc2ccc3c(Nc4ccc(Cl)nc4)nccc3c2)C1` [Example 408, N-(6-chloropyridin-3-yl)-6-((1r,3r)-3-fluorocyclobutoxy)isoquinolin-1-amine], 1 to 10 µM; that for `Clc1ccc(Nc2nccc3cc(OCC4CC4)cnc23)cn1` [Example 255, N-(6-chloropyridin-3-yl)-3-(cyclopropylmethoxy)-1,7-naphthyridin-8-amine], 1 to 10 µM. The result for `Cc1ncc(Nc2nccc3cc(OCc4cnn(C)c4C)ccc23)cn1` [Example 353, 6-((1,5-dimethyl-1H-pyrazol-4-yl)methoxy)-N-(2-methylpyrimidin-5-yl)isoquinolin-1-amine] reads less than 1 µM; that for `COc1ncc(Nc2nccc3cc(OCC4(C)COC4)ccc23)cn1` [Example 370, N-(2-methoxypyrimidin-5-yl)-6-((3-methyloxetan-3-yl)methoxy)isoquinolin-1-amine], less than 1 µM.

With `F[C@H]1C[C@H]1COc1ccc2c(Nc3ccc(Cl)nc3)nccc2c1` [Example 414, N-(6-chloropyridin-3-yl)-6-(((1S,2S)-2-fluorocyclopropyl)methoxy)isoquinolin-1-amine], the EC50 fell in the range of 1 to 10 µM. The result for `COCCOc1ccc2c(Nc3ccc(Cl)nc3)nccc2c1` [Example 4, N-(6-chloropyridin-3-yl)-6-(2-methoxyethoxy)isoquinolin-1-amine] reads 1 to 10 µM. With `CC1(C)CC(COc2ccc3c(Nc4ccc(Cl)nc4)nccc3c2)O1` (stereo not shown) [Example 209, N-(6-chloropyridin-3-yl)-6-((4,4-dimethyloxetan-2-yl)methoxy)isoquinolin-1-amine] the figure was 1 to 10 µM; with `Clc1ccc(Nc2nccc3cc(OCc4ccncn4)ccc23)cn1` [Example 51, N-(6-chloropyridin-3-yl)-6-(pyrimidin-4-ylmethoxy)isoquinolin-1-amine], 1 to 10 µM. Take `Cc1ccc(Nc2nccc3cc(OCC4CC4)ccc23)cn1` [Example 28, 6-(cyclopropylmethoxy)-N-(6-methylpyridin-3-yl)isoquinolin-1-amine]: the EC50 lay within 1 to 10 µM.

In the case of `Clc1ccc(Nc2nccc3cc(OC4CC5(COC5)C4)ccc23)cn1` [Example 113, 6-((2-oxaspiro[3.3]heptan-6-yl)oxy)-N-(6-chloropyridin-3-yl)isoquinolin-1-amine], the EC50 is less than 1 µM. With `Clc1ccc(Nc2nccc3cc(OCC4(C5CC5)CC4)ccc23)cn1` [Example 137, 6-([1,1′-bi(cyclopropan)]-1-ylmethoxy)-N-(6-chloropyridin-3-yl)isoquinolin-1-amine] the figure was less than 1 µM; with `COc1ncc(Nc2nccc3cc(OCC4CC4)ccc23)cn1` [Example 372, 6-(cyclopropylmethoxy)-N-(2-methoxypyrimidin-5-yl)isoquinolin-1-amine], 1 to 10 µM; with `Clc1ccc2c(Nc3ccc(Cl)nc3)nccc2c1` [Example 21, 6-chloro-N-(6-chloropyridin-3-yl)isoquinolin-1-amine], 10 to 30 µM. The result for `CC(C)(COc1ccc2c(Nc3ccc(Cl)nc3)nccc2c1)N1CCOCC1` [Example 101, N-(6-chloropyridin-3-yl)-6-(2-methyl-2-morpholinopropoxy)isoquinolin-1-amine] reads 1 to 10 µM; that for `COCCN1CCC(Oc2ccc3c(Nc4ccc(Cl)nc4)nccc3c2)CC1` [Example 119, N-(6-chloropyridin-3-yl)-6-((1-(2-methoxyethyl)piperidin-4-yl)oxy)isoquinolin-1-amine], 10 to 30 µM; that for `Clc1ccc(Nc2nccc3cc(Oc4cccnc4)ccc23)cn1` [Example 266, N-(6-chloropyridin-3-yl)-6-(pyridin-3-yloxy)isoquinolin-1-amine], 1 to 10 µM. The result for `Cc1ncc(Nc2nccc3cc(OCC4(C#N)CC4)ccc23)cn1` [Example 127, 1-(((1-((2-methylpyrimidin-5-yl)amino)isoquinolin-6-yl)oxy)methyl)cyclopropane-1-carbonitrile] reads less than 1 µM. Regarding `NC(=O)C1(COc2ccc3c(Nc4cnc(Cl)nc4)nccc3c2)CC1` [Example 361, 1-(((1-((2-chloropyrimidin-5-yl)amino)isoquinolin-6-yl)oxy)methyl)cyclopropane-1-carboxamide], the EC50 was less than 1 µM. With `O[C@@H]1CCCC[C@@H]1Oc1ccc2c(Nc3ccc(Cl)nc3)nccc2c1` (relative stereo) [Example 142, cis-2-((1-((6-chloropyridin-3-yl)amino)isoquinolin-6-yl)oxy)cyclohexan-1-ol], the EC50 was less than 1 µM. The result for `Clc1ccc(Nc2nccc3cc(OCc4cnn(C5COC5)c4)ccc23)cn1` [Example 117, N-(6-chloropyridin-3-yl)-6-((1-(oxetan-3-yl)-1H-pyrazol-4-yl)methoxy)isoquinolin-1-amine] reads less than 1 µM. The result for `CC(=O)N1CCC[C@@H](Oc2ccc3c(Nc4ccc(Cl)nc4)nccc3c2)C1` [Example 123, (R)-1-(3-((1-((6-chloropyridin-3-yl)amino)isoquinolin-6-yl)oxy)piperidin-1-yl)ethan-1-one] reads less than 1 µM; that for `N#CC12CC(COc3ccc4c(Nc5cnc(Cl)nc5)nccc4c3)(C1)C2` [Example 40, 3-(((1-((2-chloropyrimidin-5-yl)amino)isoquinolin-6-yl)oxy)methyl)bicyclo[1.1.1]pentane-1-carbonitrile], less than 1 µM. Take `COc1cnc(Nc2ccc(Cl)nc2)c2[nH]ccc12` [Example 15, N-(6-chloropyridin-3-yl)-4-methoxy-1H-pyrrolo[2,3-c]pyridin-7-amine formate]: the EC50 lay within 1 to 10 µM. For the compound `C[C@]1(COc2ccc3c(Nc4ccc(Cl)nc4)nccc3c2)CCCO1` [Example 302, (R)—N-(6-chloropyridin-3-yl)-6-((2-methyltetrahydrofuran-2-yl)methoxy)isoquinolin-1-amine], the EC50 fell in the range of 1 to 10 µM. The result for `Cc1ncc(Nc2nccc3cc(OCc4ccon4)ccc23)cn1` [Example 222, 6-(isoxazol-3-ylmethoxy)-N-(2-methylpyrimidin-5-yl)isoquinolin-1-amine] reads 1 to 10 µM; that for `Clc1ccc(Nc2nccc3cc(Oc4cn[nH]c4)ccc23)cn1` [Example 267, 6-((1H-pyrazol-4-yl)oxy)-N-(6-chloropyridin-3-yl)isoquinolin-1-amine], 1 to 10 µM; that for `C[C@@H]1COCCN1CCOc1ccc2c(Nc3ccc(Cl)nc3)nccc2c1` [Example 322, (R)-N-(6-chloropyridin-3-yl)-6-(2-(3-methylmorpholino)ethoxy)isoquinolin-1-amine], 1 to 10 µM. The result for `O[C@H]1CCC[C@@H](Oc2ccc3c(Nc4cnc(Cl)nc4)nccc3c2)C1` [Example 359, (1 S,3R)-3-((1-((2-chloropyrimidin-5-yl)amino)isoquinolin-6-yl)oxy)cyclohexan-1-ol] reads less than 1 µM; that for `Clc1ccc(Nc2nccc3cc(OCC4CC5(COC5)C4)ccc23)cn1` [Example 81, 6-((2-oxaspiro[3.3]heptan-6-yl)methoxy)-N-(6-chloropyridin-3-yl)isoquinolin-1-amine], 1 to 10 µM; that for `CC#CC(C)(C)COc1ccc2c(Nc3ccc(Cl)nc3)nccc2c1` [Example 161, N-(6-chloropyridin-3-yl)-6-((2,2-dimethylpent-3-yn-1-yl)oxy)isoquinolin-1-amine], 1 to 10 µM. Turning to `Clc1ccc(Nc2nccc3cc(OCc4cc[nH]n4)ccc23)cn1` [Example 391, 6-((1H-pyrazol-3-yl)methoxy)-N-(6-chloropyridin-3-yl)isoquinolin-1-amine], the EC50 is 1 to 10 µM. With `CC(Cc1cccnc1)Oc1ccc2c(Nc3ccc(Cl)nc3)nccc2c1` (stereo not shown) [Example 106, N-(6-chloropyridin-3-yl)-6-((1-(pyridin-3-yl)propan-2-yl)oxy)isoquinolin-1-amine] the figure was 1 to 10 µM; with `[2H]C([2H])(Oc1ccc2c(Nc3cnc(Cl)nc3)nccc2c1)C1(F)CC1` [Example 384, N-(2-chloropyrimidin-5-yl)-6-((1-fluorocyclopropyl)methoxy-d2)isoquinolin-1-amine], less than 1 µM; with `N#C[C@@H]1CCC[C@H](Oc2ccc3c(Nc4ccc(Cl)nc4)nccc3c2)C1` [Example 343, (1R,3S)-3-((1-((6-chloropyridin-3-yl)amino)isoquinolin-6-yl)oxy)cyclohexane-1-carbonitrile], 1 to 10 µM.
